Patent US6372774B1, “Derivatives of N-phenylpyrazoles” (Rhone-Poulenc Agriculture Ltd., priority 1985, dated 2002)

Assays:
Assay type in all cases: in vivo
[1] = tested on: Spodoptera littoralis (Egyptian Cotton Worm); experiment: Test 2: leaf disc spray test, Spodoptera littoralis larvae; conditions: foliar, application of 500 ppm, 2nd instar larvae on French bean leaf discs, sprayed
Description: One or more of the dilutions of the compounds to be tested were made in 50% aqueous acetone.
Test species: Spodoptera littoralis (Egyptian Cotton Worm)
French bean leaf discs were set in agar in petri dishes and infected with 5 2nd instar larvae. Four replicate dishes were assigned to each treatment and were sprayed under a Potter Tower with the appropriate test dilution. After 2 days, live larvae were transferred to similar dishes containing untreated leaves set in agar. Two or three days later, the dishes were removed from the constant temperature (25° C.) room in which they had been held and the mean percentage mortalities of larvae were determined.

[2] = tested on: Plutella xylostella (Diamond-back Moth); experiment: whole plant or invertebrate; conditions: foliar, read-out: Plutella % m 500 ppm
Outline: (§1)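 Compounds were diluted in 50% aqueous acetone and sprayed in a Potter Tower onto turnip leaf discs in agar, each infested with 10 larvae (2nd instar Plutella, 3rd instar Phaedon), with four replicates per treatment. Mean percentage larval mortality was scored 4–5 days later at 25 °C.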

[3] = tested on: Phaedon cochleariae (Mustard Beetle); experiment: Test 3 a): leaf disc spray test, Phaedon cochleariae larvae; conditions: Phaedon cochleariae, foliar, read-out: Phaedon % m 10 ppm
Outline: as §1

[4] = tested on: Periplaneta americana; experiment: Test 5: injection into cockroaches; conditions: dose of 5 micrograms/g insect body weight, injected in acetone; five days after treatment
Experimental: 0.2 microliters of an acetone solution of the compound was injected through the soft cuticle between the leg and thorax of ten insects, to give a dose rate of 5 micrograms per g of insect body weight. Ten cockroaches were similarity injected with 0.2 microliters of acetone alone to serve as controls. After treatment the insects were held in plastic boxes with appropriate food. Five days after treatment the numbers of dead and alive insects were counted and percentage mortalities calculated.

## Nc1c([N+](=O)[O-])c(Br)nn1-c1c(Cl)cc(C(F)(F)F)cc1Cl [Compound 105, 5-Amino-3-bromo-1-(2,6-dichloro-4-trifluoromethylphenyl)-4-nitropyrazole]
[1]
  mortality at 500 ppm: ≥ 70%

## Nc1c([N+](=O)[O-])c(Cl)nn1-c1c(Cl)cc(C(F)(F)F)cc1Cl [Compound 106, 5-Amino-3-chloro-1-(2,6-dichloro-4-trifluoromethylphenyl)-4-nitropyrazole]
[1]
  mortality at 500 ppm: ≥ 70%

## N#Cc1nn(-c2c(Cl)cc(C(F)(F)F)cc2Cl)c(N)c1[N+](=O)[O-] [Compound 107, 5-Amino-3-cyano-1-(2,6-dichloro-4-trifluoromethylphenyl)-4-nitropyrazole]
[1]
  mortality at 500 ppm: ≥ 70%

## N#Cc1nn(-c2c(Cl)cc(C(F)(F)F)cc2Cl)c(N)c1C#N [Compound 110, 5-Amino-1-(2,6-dichloro-4-trifluoromethylphenyl)-3,4-dicyanopyrazole]
[2]
  pest or weed control at 500 ppm: 89%
[3]
  pest or weed control at 10 ppm: 100%
[4]
  mortality of Periplaneta americana: 100%

## N#Cc1nn(-c2c(Cl)cc(C(F)(F)F)cc2Cl)c(NC(=O)C2CC2)c1C#N [Compound 122, 5-Cyclopropylcarbonamido-1-(2,6-dichloro-4-trifluoromethylphenyl)-3,4-dicyanopyrazole]
[4]
  mortality of Periplaneta americana: 100%

## N#Cc1nn(-c2ccc(C(F)(F)F)cc2Cl)c(N)c1C#N [Compound 125, 5-Amino-1-(2-chloro-4-trifluoromethylphenyl)-3,4-dicyanopyrazole]
[4]
  mortality of Periplaneta americana: 100%
